Experimental data from patent US11225505B2, “Antimicrobial polymyxin derivative compounds” (MONASH UNIVERSITY, priority 2015, dated 2022).
Converted amounts (≈) assume the structure as drawn. Where a SMILES comes first, the peptide text is derived from it. Bridges are numbered along the chain shown (N, C = ends). [ ]: non-standard residue; d: D form. The star is where a group is joined. Benzothiazole(2-CH2CH2CO) = O=C(CCc1nc2ccccc2s1)*; X57 = O=C(c1nc2cc(Cl)ccc2[nH]1)*; X16 = O=C(c1cnc(-c2ccccc2)nc1)*; X27 = O=C(c1sc2ccccc2c1Cl)*; X7 = O=C(c1nc2ccccc2o1)*; Dab = NCC[C@H](N)C(=O)O; Abu = CC[C@H](N)C(=O)O; Dap = NC[C@H](N)C(=O)O

Legend:
Assay type in all cases: cell-based
[1] = test system: Pseudomonas aeruginosa FADDI-PA022; details: FADDI-PA022
Procedure, shortened: (§1)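 Susceptibility of polymyxin-susceptible Gram-negative strains, including multidrug-resistant clinical isolates PA022 and AB034, was tested by broth microdilution. Cation-adjusted Mueller-Hinton broth and the CLSI M100-S24 method were used.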

[2] = test system: Enterobacter cloacae FADDI-EC006; details: FADDI-EC006
Procedure, shortened: as §1

[3] = test system: Pseudomonas aeruginosa FADDI-PA038; details: FADDI-PA038
Procedure, shortened: as §1

[4] = test system: Klebsiella pneumoniae FADDI-KP022; details: FADDI-KP022
Procedure, shortened: as §1

[5] = test system: Acinetobacter baumannii ATCC 17978; details: ATCC 17978
Procedure, shortened: as §1

[6] = test system: Pseudomonas aeruginosa ATCC 27853; details: ATCC 27853
Procedure, shortened: as §1

[7] = test system: Enterobacter cloacae FADDI-EC003; details: FADDI-EC003
Procedure, shortened: as §1

[8] = test system: Enterobacter cloacae FADDI-EC001; details: FADDI-EC001
Procedure, shortened: (§2)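 Values are MICs of the lipopeptide trifluoroacetic acid salts. Dilution series were set up in CAMHB as CLSI M100-S24 specifies.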

[9] = test system: Acinetobacter baumannii FADDI-AB034; details: FADDI-AB034
Procedure, shortened: as §1

[10] = test system: Pseudomonas aeruginosa FADDI-PA01; details: FADDI-
Procedure, shortened: as §1

[11] = test system: Klebsiella pneumoniae FADDI-KP032; details: FADDI-KP032
Procedure, shortened: as §1

[12] = test system: Klebsiella pneumoniae Kp BM1; details: Kp BM1
Procedure, shortened: as §2

[13] = test system: Acinetobacter baumannii FADDI-AB030; test: microbe, parasite or virus in culture; details: FADDI-AB030
Procedure, shortened: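 Lipopeptide TFA salts tested against the multidrug-resistant clinical isolate by CLSI (M100-S24) broth microdilution in cation-adjusted Mueller-Hinton broth, with polymyxin B sulphate as control; MIC read.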

## CC(C)C[C@H]1NC(=O)[C@H](CCN)NC(=O)[C@@H](NC(=O)[C@H](CN)NC(=O)[C@@H](NC(=O)[C@H](CCN)NC(=O)c2sc3ccccc3c2Cl)[C@@H](C)O)CCNC(=O)[C@H]([C@@H](C)O)NC(=O)[C@H](CCN)NC(=O)[C@H](CCN)NC(=O)[C@H](C)NC1=O [Compound 69] (X27-[Dab]T[Dap][Dab][Dab][dL]A[Dab][Dab]T; lactam 4-C)
[1]
  Minimum inhibitory concentration: 0.5 µg/mL (≈ 0.428 µM)
[2]
  Minimum inhibitory concentration: 0.25 µg/mL (≈ 0.214 µM)
[3]
  Minimum inhibitory concentration: 2 µg/mL (≈ 1.71 µM)
[4]
  Minimum inhibitory concentration: <0.125 µg/mL
[5]
  Minimum inhibitory concentration: 0.25 µg/mL (≈ 0.214 µM)
[6]
  Minimum inhibitory concentration: 0.5 µg/mL (≈ 0.428 µM)
[7]
  Minimum inhibitory concentration: 0.25 µg/mL (≈ 0.214 µM)
[8]
  Minimum inhibitory concentration: 1 µg/mL (≈ 0.856 µM)
[9]
  Minimum inhibitory concentration: 0.25 µg/mL (≈ 0.214 µM)
[10]
  Minimum inhibitory concentration: 0.5 µg/mL (≈ 0.428 µM)
[11]
  Minimum inhibitory concentration: 0.25 µg/mL (≈ 0.214 µM)
[12]
  Minimum inhibitory concentration: 0.25 µg/mL (≈ 0.214 µM)
[13]
  Minimum inhibitory concentration: 0.25 µg/mL (≈ 0.214 µM)

## CC[C@@H]1NC(=O)[C@@H](CC(C)C)NC(=O)[C@H](CCN)NC(=O)[C@@H](NC(=O)[C@H](CN)NC(=O)[C@@H](NC(=O)[C@H](CCN)NC(=O)c2nc3cc(Cl)ccc3[nH]2)[C@@H](C)O)CCNC(=O)[C@H]([C@@H](C)O)NC(=O)[C@H](CCN)NC(=O)[C@H](CCN)NC1=O [Compound 71] (X57-[Dab]T[Dap][Dab][Dab][dL][Abu][Dab][Dab]T; lactam 4-C)
[1]
  Minimum inhibitory concentration: 0.5 µg/mL (≈ 0.429 µM)
[2]
  Minimum inhibitory concentration: <0.125 µg/mL
[3]
  Minimum inhibitory concentration: 2 µg/mL (≈ 1.72 µM)
[4]
  Minimum inhibitory concentration: <0.125 µg/mL
[5]
  Minimum inhibitory concentration: 0.5 µg/mL (≈ 0.429 µM)
[6]
  Minimum inhibitory concentration: 0.5 µg/mL (≈ 0.429 µM)
[7]
  Minimum inhibitory concentration: <0.125 µg/mL
[8]
  Minimum inhibitory concentration: 0.25 µg/mL (≈ 0.214 µM)
[9]
  Minimum inhibitory concentration: 0.5 µg/mL (≈ 0.429 µM)
[10]
  Minimum inhibitory concentration: 0.25 µg/mL (≈ 0.214 µM)
[11]
  Minimum inhibitory concentration: <0.125 µg/mL
[12]
  Minimum inhibitory concentration: <0.125 µg/mL
[13]
  Minimum inhibitory concentration: 0.25 µg/mL (≈ 0.214 µM)

## CC[C@@H]1NC(=O)[C@@H](CC(C)C)NC(=O)[C@H](CCN)NC(=O)[C@@H](NC(=O)[C@H](CN)NC(=O)[C@@H](NC(=O)[C@H](CCN)NC(=O)CCc2nc3ccccc3s2)[C@@H](C)O)CCNC(=O)[C@H]([C@@H](C)O)NC(=O)[C@H](CCN)NC(=O)[C@H](CCN)NC1=O [Compound 72] ({Benzothiazole(2-CH2CH2CO)}-[Dab]T[Dap][Dab][Dab][dL][Abu][Dab][Dab]T; lactam 4-C)
[1]
  Minimum inhibitory concentration: 0.5 µg/mL (≈ 0.425 µM)
[2]
  Minimum inhibitory concentration: <0.125 µg/mL
[3]
  Minimum inhibitory concentration: 0.5 µg/mL (≈ 0.425 µM)
[4]
  Minimum inhibitory concentration: <0.125 µg/mL
[5]
  Minimum inhibitory concentration: 0.5 µg/mL (≈ 0.425 µM)
[6]
  Minimum inhibitory concentration: 0.5 µg/mL (≈ 0.425 µM)
[7]
  Minimum inhibitory concentration: <0.125 µg/mL
[8]
  Minimum inhibitory concentration: <0.125 µg/mL
[9]
  Minimum inhibitory concentration: 0.5 µg/mL (≈ 0.425 µM)
[10]
  Minimum inhibitory concentration: 0.5 µg/mL (≈ 0.425 µM)
[11]
  Minimum inhibitory concentration: <0.125 µg/mL
[12]
  Minimum inhibitory concentration: <0.125 µg/mL
[13]
  Minimum inhibitory concentration: 0.5 µg/mL (≈ 0.425 µM)

## CC[C@@H]1NC(=O)[C@@H](CC(C)C)NC(=O)[C@H](CCN)NC(=O)[C@@H](NC(=O)[C@H](CN)NC(=O)[C@@H](NC(=O)[C@H](CCN)NC(=O)c2cnc(-c3ccccc3)nc2)[C@@H](C)O)CCNC(=O)[C@H]([C@@H](C)O)NC(=O)[C@H](CCN)NC(=O)[C@H](CCN)NC1=O [Compound 73] (X16-[Dab]T[Dap][Dab][Dab][dL][Abu][Dab][Dab]T; lactam 4-C)
[1]
  Minimum inhibitory concentration: 0.5 µg/mL (≈ 0.428 µM)
[2]
  Minimum inhibitory concentration: 1 µg/mL (≈ 0.855 µM)
[3]
  Minimum inhibitory concentration: 2 µg/mL (≈ 1.71 µM)
[4]
  Minimum inhibitory concentration: <0.125 µg/mL
[5]
  Minimum inhibitory concentration: 0.5 µg/mL (≈ 0.428 µM)
[6]
  Minimum inhibitory concentration: 0.5 µg/mL (≈ 0.428 µM)
[7]
  Minimum inhibitory concentration: 0.5 µg/mL (≈ 0.428 µM)
[8]
  Minimum inhibitory concentration: <0.125 µg/mL
[9]
  Minimum inhibitory concentration: 0.5 µg/mL (≈ 0.428 µM)
[10]
  Minimum inhibitory concentration: 0.5 µg/mL (≈ 0.428 µM)
[11]
  Minimum inhibitory concentration: <0.125 µg/mL
[12]
  Minimum inhibitory concentration: <0.125 µg/mL
[13]
  Minimum inhibitory concentration: 0.5 µg/mL (≈ 0.428 µM)

## CC[C@@H]1NC(=O)[C@@H](CC(C)C)NC(=O)[C@H](CCN)NC(=O)[C@@H](NC(=O)[C@H](CN)NC(=O)[C@@H](NC(=O)[C@H](CCN)NC(=O)c2nc3ccccc3o2)[C@@H](C)O)CCNC(=O)[C@H]([C@@H](C)O)NC(=O)[C@H](CCN)NC(=O)[C@H](CCN)NC1=O [Compound 74] (X7-[Dab]T[Dap][Dab][Dab][dL][Abu][Dab][Dab]T; lactam 4-C)
[1]
  Minimum inhibitory concentration: 0.25 µg/mL (≈ 0.221 µM)
[2]
  Minimum inhibitory concentration: 0.5 µg/mL (≈ 0.442 µM)
[3]
  Minimum inhibitory concentration: 0.5 µg/mL (≈ 0.442 µM)
[4]
  Minimum inhibitory concentration: <0.125 µg/mL
[5]
  Minimum inhibitory concentration: 1 µg/mL (≈ 0.883 µM)
[6]
  Minimum inhibitory concentration: 0.25 µg/mL (≈ 0.221 µM)
[7]
  Minimum inhibitory concentration: <0.125 µg/mL
[8]
  Minimum inhibitory concentration: <0.125 µg/mL
[9]
  Minimum inhibitory concentration: 1 µg/mL (≈ 0.883 µM)
[10]
  Minimum inhibitory concentration: 0.5 µg/mL (≈ 0.442 µM)
[11]
  Minimum inhibitory concentration: 0.25 µg/mL (≈ 0.221 µM)
[12]
  Minimum inhibitory concentration: 0.25 µg/mL (≈ 0.221 µM)
[13]
  Minimum inhibitory concentration: 0.5 µg/mL (≈ 0.442 µM)
